Columns and labels:
[1] = target: T1, CYP2C9 (Homo sapiens, UniProt P11712); assay: Radiometric CYP2C9 assay using [4′-3H]-diclofenac: formation of [3H]-H2O in pooled human liver microsomes
Method: (§1) Radiometric CYP2C9 assays using [4′-^3H]-diclofenac. […] (Woburn, Mass.). Inhibitors were added to the reaction mixture from stock solutions in DMSO/acetonitrile/water (35:25:40, v/v), giving final solvent concentrations of 0.7% DMSO and 0.5% acetonitrile. No inhibitor controls contained an equivalent amount of vehicle. Following preincubation for 10 minutes at 37° C., reactions were started by addition of 1 mM NADPH and an NADPH regenerating system containing 5 mM glucose-6-phosphate, 3 mM MgCl2, and 1 U/mL glucose-6-phosphate dehydrogenase. Assays were conducted for 10 minutes at 37° C. and stopped by addition of HCl to a final concentration of 0.1 N. Plates were then centrifuged for 10 minutes in a microplate rotor and supernatants loaded into the wells of a preconditioned 10 mg OASIS 96-well HLB plate. OASIS HLB 96 well extraction plates and vacuum manifold are available from Waters Corp., Newcastle, Del. Vacuum was applied and the void volume collected in the collection plate. Then, 75 μL of water was added, vacuum was applied again, and the wash was collected into the same plate. Pooled void volume and water wash were transferred into scintillation vials and counted in a beta-scintillation counter. Alternatively, aliquots were counted in 24- or 96-well scintillation plates using a TOPCOUNT scintillation counter (Packard, Perkin Elmer, Boston, Mass.). For the calculation of enzyme activity, product counts were corrected by subtraction of counts obtained in control incubations performed in the absence of NADPH regenerating system.
Calculation of the apparent rate of formation of unlabelled product from tracer competition experiments. When assays are performed using a fixed amount of [4′-^3H]-diclofenac and varying concentrations of unlabelled diclofenac, the velocity of formation of unlabelled product, v, is given by: v=v*/SAP equation 3 where v* is the velocity of formation of tritiated water. Substituting from equation 2, we obtain: v=v*x(^TV/K)/SA0 equation 4 Defining v′ as the velocity of formation of unlabelled product divided by the kinetic isotope effect, i.e. v′=v/(^TV/K) equation 5 we obtain v′=v*/SA0 equation 6 Without using the known ^TV/K ratio (which would be tautological, since it was derived from SAP), v′, the apparent formation rate of unlabelled product, can be calculated. When plotted against the substrate concentration, S, and fitted to the Hill equation (equation 7), V′max, S50, the substrate concentration at 50%, and n, the Hill coefficient, can be derived.

[2] = target: T1, CYP2C9; assay: in vitro
Method: as §1
Quantification of 4′hydroxydiclofenac. Aliquots of the assay reaction mixture and of metabolite standard curves were analyzed by HPLC using an Agilent HP1100 liquid chromatograph (Agilent Technologies) equipped with a CTC Analytics PAL Autosampler (HTS PAL; CTC Analytics AG, Switzerland). Chromatography was performed on a XTERRA MS C18 column (4.6 mm×5 cm; 5 μm; Waters Corp., Medford, Mass.) at a flow rate of 2 mL/min, using a mobile phase consisting of a mixture of 0.1% formic acid in water (A) and 0.1% formic acid in acetonitrile (B) (linear gradient 0 to 0.5 min, 10% B; 3.0 min 90% B, 3.5 min 90% B, 3.6 min 10% B; the system was equilibrated for 1.4 minutes at 10% B prior to the next injection). The eluate was diverted to waste for the first minute, and then to a Sciex API-3000 triple quadruple mass spectrometer (available, for example, from Perkin Elmer, Boston, Mass.) with a Turbo Ionspray ionization source operated in the positive ion mode. […] Metabolite concentrations were determined by weighted linear least-squares regression analysis, using Analyst Quantitation Wizard software version 1.2 (Applied Biosystems, Foster City, Calif.).
To compare IC50 values of several known CYP2C9 inhibitors obtained in the radiometric assay with those obtained by conventional HPLC-mass spectrometric assay, reactions were performed in the absence or presence of different concentrations of known inhibitors. Tritiated water formation and formation of unlabelled reaction product 4′OH-diclofenac were determined in the same reaction mixture. The 4′-OH-diclofenac was quantified by HPLC coupled to triple quadruple mass spectrometric analysis.

[3] = target: T1, CYP2C9; conditions: sulfaphenazole at 10 μM, 10 μM unlabelled diclofenac, FIG. 12
[4] = target: T1, CYP2C9; conditions: Cohen et al.; cited from earlier work

T1 sequence (P11712 whole entry): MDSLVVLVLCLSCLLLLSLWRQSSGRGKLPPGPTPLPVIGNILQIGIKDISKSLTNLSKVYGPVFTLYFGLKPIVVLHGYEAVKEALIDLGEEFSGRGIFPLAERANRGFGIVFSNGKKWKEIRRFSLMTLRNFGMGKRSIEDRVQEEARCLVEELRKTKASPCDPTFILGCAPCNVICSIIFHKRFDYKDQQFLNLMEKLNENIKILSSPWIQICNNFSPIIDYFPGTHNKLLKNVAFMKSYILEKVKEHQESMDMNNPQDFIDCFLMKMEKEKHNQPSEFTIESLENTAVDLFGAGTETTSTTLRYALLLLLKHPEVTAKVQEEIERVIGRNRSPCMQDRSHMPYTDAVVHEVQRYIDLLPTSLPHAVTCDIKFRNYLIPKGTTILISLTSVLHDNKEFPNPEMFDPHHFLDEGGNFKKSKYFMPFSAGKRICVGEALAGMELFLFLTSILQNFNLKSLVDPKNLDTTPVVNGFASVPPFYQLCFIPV

Structure (SMILES) | IC50 [1] [µM] | Ratio (radiometric/conventional) [1] | IC50 [2] [µM] | other results
Cc1ccc(C)c(OCCCC(C)(C)C(=O)O)c1 [Gemfibrozil] | 27.7 ± 6.9 | 0.71 | 39.1 ± 7.1 | 
COc1ccc2c(c1)c(CC(=O)O)c(C)n2C(=O)c1ccc(Cl)cc1 [Indomethacin] | 54.8 ± 8.1 | 0.96 | 57 ± 10.5 | 
COCC(=O)O[C@]1(CCN(C)CCCc2nc3ccccc3[nH]2)CCc2cc(F)ccc2[C@@H]1C(C)C [Mibefradil] | 40 ± 5 | 0.69 | 57.6 ± 9.9 | 
Clc1ccc(COC(Cn2ccnc2)c2ccc(Cl)cc2Cl)c(Cl)c1 (centres unmarked) [Miconazole] | 0.2 ± 0.02 | 1.54 | 0.13 ± 0.03 | 
COc1ccc2[nH]c([S+]([O-])Cc3ncc(C)c(OC)c3C)nc2c1 (centres unmarked) [Omeprazole] | 43.8 ± 10.4 | 1.04 | 42.3 ± 15.3 | 
CCCCC1C(=O)N(c2ccccc2)N(c2ccccc2)C1=O [Phenylbutazone] | 41.4 ± 6.5 | 0.94 | 44.2 ± 2.2 | 
CC(=O)[C@H]1CC[C@H]2[C@@H]3CCC4=CC(=O)CC[C@]4(C)[C@H]3CC[C@]12C [Progesterone] | 25.2 ± 3.1 | 1.26 | 20 ± 4.6 | 
CC(=O)C[C@@H](c1ccccc1)c1c(O)c2ccccc2oc1=O [S-Warfarin] |  |  |  | IC50 ([1]; read-out: IC50 (μM) radiometric, HLM, formation rate of [3H]-H2O from [4′-3H]-diclofenac, mean ± SEM, n = 2): 14.6 ± 2.3 µM; IC50 ([2]; read-out: IC50 (μM) Conventional, HLM, formation rate of 4′-hydroxydiclofenac by LC-MS/MS, same reaction mixture, mean ± SEM, n = 2): 8.7 ± 3.6 µM
Nc1ccc(S(=O)(=O)Nc2ccnn2-c2ccccc2)cc1 [Sulfaphenazole] |  | 0.96 |  | effect on formation of tritiated water from [4′-3H]diclofenac in human hepatocytes (in words) [3]: almost totally inhibited; effect on NADPH-dependent formation of tritiated water from [4′-3H]-diclofenac in HLM (in words) ([1]; human, microsomes): inhibited
O=C(O)Cc1ccccc1Nc1c(Cl)cccc1Cl [diclofenac] |  |  |  | ratio between V′max and Vmax [1]: 0.9; Hill coefficient n (v′ vs. S) ([1]; human, 10 min, pH 7.6): 1.15±0.05; V′max (apparent maximal rate of product formation) ([1]; human, 10 min, pH 7.6): 1.5 ± 0.1 nmol/min/mg; Km at 10 min ([1]; human, microsomes, pH 7.6): 6.8 ± 1 µM; Hill coefficient of 4′-hydroxydiclofenac formation ([2]; human, 10 min, pH 7.6): 1.1±0.1; Km at 10 min ([2]; human, microsomes, pH 7.6): 6.2 ± 0.9 µM; Km ([2]; human, pH 7.6): ~6 µM
Cc1nc2c([nH]1)c(=O)n(C)c(=O)n2Cc1ccco1 [furafylline] |  |  |  | effect on NADPH-dependent formation of tritiated water from [4′-3H]-diclofenac in HLM (in words) ([1]; human, microsomes): none of these agents significantly affected
CC(=O)CC(c1ccccc1)c1c(O)c2ccccc2oc1=O (centres unmarked) [warfarin] |  |  |  | inhibitor of CYP2C9 when probed with the fluorogenic substrate MFC [4]: not

From US7629140B2, “Assay for cytochrome P450 isoform 2C9” (Istituto di Richerche di Biologia Molecolare P. Angeletti …, priority 2004, dated 2009)
